Reference: patent US7332495B2 (priority 2002, dated 2008)
Where a name gives a salt, the structure may show the parent alone. Read-outs that look alike come from different tables or passages of the source.

Columns and labels:
[1] = tested on: Kunming mice; assay: Mice writhing model (acetic acid); format: in vivo; conditions: for inhibition in vivo at 20 mg/kg: Mus musculus, ip, i.p. 20 mg/Kg, acetic acid 0.7% i.p. after 30 minutes, writhes in 5 minutes, read-out: Analgesia (inhibition ratio of writhing)
Protocol: (§1) Kunming mice were used, with a male-female ratio of 50-50%. The test compound is administered i.p. (20 mg/Kg body weight) to the test groups, and physiological saline is administered P.O. (20 ml/Kg body weight) to the control group. After 30 minutes, acetic acid (0.7%, […] i.p.) was injected and the number of writhes was observed during a 5-minute period after acetic acid administration. The inhibition ratio of the writhing threshold was calculated. The alternating current tube is used to record the spontaneous activities for measuring sedation.
(§2) Two species of animals (mice and rats) and four types of pain testing models (i.p. 0.7% acetic acid, s.c. 5% formalin, hot plate 55° C., focused radiant heat) were used.

[2] = tested on: rat; assay: animal or person; conditions: for responders at 20 mg/kg: Rattus norvegicus, ip
Protocol: Using 55° C. hot plate pain threshold detector (available from Ninghai Baishi Electronic Medical Instrument Co., Zheijiang, China) the threshold change before and after administration of a pharmaceutical composition of the present invention is tested. […] hind paw was scrubbed with alcohol cotton ball before the experiment. The regular pain threshold was tested twice for each rat, the induced hind paw licking time being recorded as the pain threshold. Measurements were made at 20-30 minute intervals. Only rats with stable pain reaction were used in the pharmaceutical test.
as §2

[3] = tested on: rat; assay: Rat tail flick model (focused radiant heat); format: in vivo; conditions: for change in vivo at 20 mg/kg: Rattus norvegicus, po, read-out: increase (%) of tail flick time; for change in vivo at 20 mg/kg / After (s) tail flick time: orally 20 mg/kg; for After (s) tail flick time: 30-45 minutes after administration
Protocol: A 8.75 mm-projecting lamp (12 v, 50 w) was used to give out focused radiant heat. The terminal 3 cm of the tail is exposed to the heat. The intensity of the focused radiant heat is regulated by a transformer to ensure that the time required to elicit a tail flick response is within 3-5 seconds. The rat's pain threshold is pre-tested for 2-3 times; and only animals with stable reactions were used in the pharmaceutical test. The test substance is taken orally 20 mg/kg. The number of rats whose increase in time for eliciting a tail flick response is by 100% or more at the peak of the drug action (30-45 minutes after administration) is used to calculate analgesic effect.
as §2

[4] = tested on: Kunming mice; assay: Sedation: spontaneous activities recorded with alternating current tube; format: in vivo; conditions: for inhibition in vivo at 20 mg/kg: Mus musculus, ip, i.p. 20 mg/Kg, spontaneous activities
Protocol: as §1, with “The test compound is administered i.p. (20 mg/Kg body weight) to the test groups, and physiological saline is administered P.O. (20 ml/Kg body weight) to the control group.” left out

[5] = read-out: Analgesic ratio (Increase by 100%)
[6] = read-out: Analgesic ratio (More than 60 seconds)

## COc1cccc(CN2CCN(CC(=O)c3ccccc3)CC2)c1 [IV-25, N^1-(3-methoxybenzyl)-N^4-phenacyl piperazine]
[1]
  inhibition in vivo at 20 mg/kg: 100%
[2]; [5]
  responders at 20 mg/kg: 40%
[2]; [6]
  responders at 20 mg/kg: 10%
[3]
  change in vivo at 20 mg/kg: 12%
  After (s) tail flick time: 8.37 s
[4]
  inhibition in vivo at 20 mg/kg: 88%

## O=C(CN1CCN(Cc2ccccc2)CC1)c1ccc([N+](=O)[O-])cc1 (as salt: hydrochloride) [IV-9, N^1-benzyl-N^4-(4-nitrophenacyl)piperazine]
other
  melting point: 236 to 238 °C

## COc1ccc2cc(C(=O)C(C)N3CCN(Cc4ccc5c(c4)OCO5)CC3)ccc2c1Cl (stereo not shown) (as salt: hydrochloride)
other
  melting point: 230 to 232 °C

## Cc1ccc(C(=O)CN2CCN(C(C)c3ccccc3)CC2)cc1 (stereo not shown) (as salt: hydrochloride) [IV-40, N^1-(1-phenylethyl)-N^4-(4-methylphenacyl)piperazine]
other
  melting point: 230 to 232 °C

## Cc1ccc(C(=O)CN2CCN(C(C)c3ccccc3)CC2)cc1 (stereo not shown) [IV-40, N^1-(1-phenylethyl)-N^4-(4-methylphenacyl)piperazine]
[2]; [5]
  responders at 20 mg/kg: 10%
[2]; [6]
  responders at 20 mg/kg: 10%
[3]
  change in vivo at 20 mg/kg: 8%
  After (s) tail flick time: 7.88 s

## CC(=O)Nc1ccc(CN2CCN(CC(=O)c3ccccc3)CC2)cc1 [IV-21, N^1-(4-acetamidobenzyl)-N^4-phenacyl piperazine]
[1]; 20 mg/kg, Table 5 summary
  Writhing (K i): 100
[1]
  inhibition in vivo at 20 mg/kg: 100%
[2]; 20 mg/kg, Table 5 summary
  Increase (hot plate) (%): 100%
[2]; [5]
  responders at 20 mg/kg: 100%
[2]; [6]
  responders at 20 mg/kg: 50%
[3]; 20 mg/kg, Table 5 summary
  Increase (tail flick) (%): 28%
[3]
  change in vivo at 20 mg/kg: 28%
  After (s) tail flick time: 9.72 s
[4]; 20 mg/kg, Table 5 summary
  Sedation (writhing model): 92
[4]
  inhibition in vivo at 20 mg/kg: 92%

## CC(c1ccccc1)N1CCN(CC(=O)c2ccccc2)CC1 (stereo not shown) (as salt: hydrochloride) [IV-37, N^1-(1-phenylethyl)-N^4-phenacyl piperazine]
other
  melting point: 242 °C (dec.)

## O=C(CN1CCN(Cc2ccccc2)CC1)c1ccc2ccccc2c1 (as salt: hydrochloride) [IV-7, N^1-benzyl-N^4-(2-naphthoylmethyl)piperazine]
other
  melting point: 241 °C (dec.)

## CC(c1ccccc1)N1CCN(CC(=O)c2ccccc2)CC1 (stereo not shown) [IV-37, N^1-(1-phenylethyl)-N^4-phenacyl piperazine]
[1]
  inhibition in vivo at 20 mg/kg: 100%
[2]; [5]
  responders at 20 mg/kg: 100%
[2]; [6]
  responders at 20 mg/kg: 100%
[3]
  change in vivo at 20 mg/kg: 25%
  After (s) tail flick time: 10.54 s
[4]
  inhibition in vivo at 20 mg/kg: 90.1%

## COc1ccc2cc(C(=O)C(C)N3CCN(Cc4ccc(N)cc4)CC3)ccc2c1Cl (stereo not shown) (as salt: hydrochloride)
other
  melting point: 206 to 208 °C

## COc1ccc(OC)c(CN2CCN(CC(=O)c3ccccc3)CC2)c1 (as salt: hydrochloride) [IV-15, N^1-(2,5-dimethoxybenzyl)-N^4-phenacyl piperazine]
other
  melting point: 238 to 240 °C

## O=C(CN1CCN(Cc2ccc(Cl)cc2)CC1)c1ccccc1 (as salt: hydrochloride) [IV-3, N^1-(4-chlorobenzyl)-N^4-phenacyl piperazine]
other
  melting point: 256 to 258 °C

## CC(=O)Nc1ccc(CN2CCN(CC(=O)c3ccccc3)CC2)cc1 (as salt: hydrochloride) [IV-21, N^1-(4-acetamidobenzyl)-N^4-phenacyl piperazine]
other
  melting point: 238 to 240 °C

## COc1ccc(C(=O)CN2CCN(Cc3ccccc3)CC2)cc1 (as salt: hydrochloride) [IV-8, N^1-benzyl-N^4-(4-methoxyphenacyl)piperazine]
other
  melting point: 228 to 230 °C

## O=C(CN1CCN(CCc2ccccc2)CC1)c1ccccc1 (as salt: hydrochloride) [IV-14, N^1-phenethyl-N^4-phenacyl piperazine]
other
  melting point: 238 to 240 °C

## O=C(CN1CCN(Cc2ccccc2)CC1)c1ccc(Cl)cc1 (as salt: hydrochloride) [IV-6, N^1-benzyl-N^4-(4-chlorophenacyl)piperazine]
other
  melting point: 231 to 233 °C

## COc1ccc2cc(C(=O)C(C)N3CCN(Cc4ccccc4)CC3)ccc2c1Cl (stereo not shown) (as salt: hydrochloride)
other
  melting point: 252 to 253 °C (dec.)

## O=C(CN1CCN(Cc2ccccc2)CC1)c1ccccc1 (as salt: hydrochloride) [IV-1, N^1-benzyl-N^4-phenacyl piperazine]
other
  melting point: 238 to 239 °C

## O=C(CN1CCN(Cc2ccc3c(c2)OCO3)CC1)c1ccccc1 (as salt: hydrochloride) [IV-19, N^1-(3,4-methylenedioxybenzyl)-N^4-phenacyl piperazine]
other
  melting point: 240 to 241 °C

## CC(C(=O)c1ccccc1)N1CCN(Cc2ccc(N)cc2)CC1 (stereo not shown) (as salt: hydrochloride) [IV-13, N^1-(4-aminobenzyl)-N^4-(1-benzoylethyl)piperazine]
other
  melting point: 244 to 246 °C (dec.)

## COc1ccc(CN2CCN(C(C)C(=O)c3ccc4c(Cl)c(OC)ccc4c3)CC2)cc1 (stereo not shown) (as salt: hydrochloride) [IV-31, N^1-(4-methoxybenzyl)-N^4-[1-(5-chloro-6-methoxy-2-naphthoyl)ethyl]piperazine]
other
  melting point: 222 to 224 °C

## O=C(CN1CCN(Cc2ccc3c(c2)OCO3)CC1)c1ccccc1 [IV-19, N^1-(3,4-methylenedioxybenzyl)-N^4-phenacyl piperazine]
[1]
  inhibition in vivo at 20 mg/kg: 97%
[2]; [5]
  responders at 20 mg/kg: 70%
[2]; [6]
  responders at 20 mg/kg: 50%
[3]
  change in vivo at 20 mg/kg: 6.7%
  After (s) tail flick time: 8.58 s
[4]
  inhibition in vivo at 20 mg/kg: 93%

## O=C(CCN1CCN(Cc2ccccc2)CC1)c1ccccc1 (as salt: hydrochloride) [IV-17, N^1-benzyl-N^4-(2-benzoylethyl)piperazine]
other
  melting point: 230 to 232 °C

## Nc1ccc(C(=O)CN2CCN(Cc3ccccc3)CC2)cc1 (as salt: hydrochloride) [IV-16, N^1-benzyl-N^4-(4-aminophenacyl)piperazine]
other
  melting point: 286 to 288 °C

## Cc1ccc(C(=O)CN2CCN(C(C)c3ccc([N+](=O)[O-])cc3)CC2)cc1 (stereo not shown) [IV-27, N^1-[1-(4-nitrophenyl)ethyl]-N^4-(4-methylphenacyl)piperazine]
[1]
  inhibition in vivo at 20 mg/kg: 57%
[2]; [5]
  responders at 20 mg/kg: 20%
[2]; [6]
  responders at 20 mg/kg: 0%
[2]; i.p. 20 mg/Kg
  Excitement: no
[2]; i.p. 20 mg/Kg, grade symbols, key not given
  Sedation: no
[3]
  change in vivo at 20 mg/kg: 9.2%
  After (s) tail flick time: 9.37 s
[4]
  inhibition in vivo at 20 mg/kg: 74%

## CC(=O)Nc1ccc(C(=O)CN2CCN(Cc3ccc([N+](=O)[O-])cc3)CC2)cc1 (as salt: hydrochloride) [IV-18, N^1-(4-nitrobenzyl)-N^4-[(4-acetamido)phenacyl]piperazine]
other
  melting point: 228 to 230 °C

## CC(C(=O)c1ccccc1)N1CCN(Cc2ccc(Cl)cc2)CC1 (stereo not shown) (as salt: hydrochloride)
other
  melting point: 260 to 262 °C

## COc1ccc2cc(C(=O)C(C)N3CCN(C(C)c4ccccc4)CC3)ccc2c1Cl (stereo not shown) (as salt: hydrochloride) [IV-43, N^1-(1-phenylethyl)-N^4-[1-(5-chloro-6-methoxy-2-naphthoyl)ethyl]piperazine]
other
  melting point: 231 to 232 °C

## O=C(CN1CCN(Cc2cccnc2)CC1)c1ccccc1 (as salt: hydrochloride) [IV-11, N^1-(3-pyridylmethyl)-N^4-phenacyl piperazine]
other
  melting point: 225 to 226 °C

## C[C@H](c1ccccc1)N1CCN(CC(=O)c2ccccc2)CC1 (as salt: hydrochloride) [IV-38, N^1—(R-1-phenylethyl)-N^4-phenacyl piperazine]
other
  melting point: 230 to 232 °C

## O=C(CN1CCN(Cc2ccc(F)cc2)CC1)c1ccc(Cl)cc1 (as salt: hydrochloride) [IV-20, N^1-(4-fluorobenzyl)-N^4-(4-chlorophenacyl)piperazine]
other
  melting point: 246 to 248 °C (dec.)

## COc1ccc(CN2CCN(CC(=O)c3ccccc3)CC2)cc1 (as salt: hydrochloride) [IV-10, N^1-(4-methoxybenzyl)-N^4-phenacyl piperazine]
other
  melting point: 222 to 224 °C

## O=C(CN1CCN(Cc2ccc([N+](=O)[O-])cc2)CC1)c1ccccc1 (as salt: hydrochloride) [IV-4, N^1-(4-nitrobenzyl)-N^4-phenacyl piperazine]
other
  melting point: 236 to 238 °C
